# According to article PMC11233931, “Remodeling tumor‐associated macrophage for anti‐cancer effects by rational design of irreversible inhibition of mitogen‐activated protein kinase‐activated protein kinase 2” (MedComm, 2024):
# Like-named read-outs stand apart in the source and are kept apart here.
# Legend:
# Assay in all cases: Eurofins kinase selectivity profile against 380 other human recombinant kinases (Table S2)
# Type in all cases: biochemical
# [1] = target: T1, 380 human recombinant protein kinases (Homo sapiens, UniProt Q02763); conditions: Tie2 (h), read-out: Inhibition rate (%)
# T1 construct: purchased Eurofins (Celle Lévescault)
# Outline: (§1)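 The inhibitor was sent to a contract lab and screened at various concentrations against 380 human recombinant protein kinases. This served as a counter-screen for MK2 specificity.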
# [2] = target: T2, 380 human recombinant protein kinases (Homo sapiens, UniProt P42345); conditions: read-out: Inhibition rate; for inhibition at 0.01 µM: 10 nM; for inhibition at 0.1 µM: 100 nM; for inhibition at 1 µM: 1000 nM
# T2 construct: purchased Eurofins (Celle Lévescault)
# Outline: as §1
# [3] = target: T3, 380 human recombinant protein kinases (Homo sapiens, UniProt P43405); conditions: Syk(h), read-out: Inhibition rate (%)
# T3 construct: purchased Eurofins (Celle Lévescault)
# Outline: as §1
# [4] = target: T4, 380 human recombinant protein kinases (Homo sapiens, UniProt Q08881); conditions: Itk(h), read-out: Inhibition rate
# T4 construct: purchased Eurofins (Celle Lévescault)
# T4 sequence (Q08881 1-620): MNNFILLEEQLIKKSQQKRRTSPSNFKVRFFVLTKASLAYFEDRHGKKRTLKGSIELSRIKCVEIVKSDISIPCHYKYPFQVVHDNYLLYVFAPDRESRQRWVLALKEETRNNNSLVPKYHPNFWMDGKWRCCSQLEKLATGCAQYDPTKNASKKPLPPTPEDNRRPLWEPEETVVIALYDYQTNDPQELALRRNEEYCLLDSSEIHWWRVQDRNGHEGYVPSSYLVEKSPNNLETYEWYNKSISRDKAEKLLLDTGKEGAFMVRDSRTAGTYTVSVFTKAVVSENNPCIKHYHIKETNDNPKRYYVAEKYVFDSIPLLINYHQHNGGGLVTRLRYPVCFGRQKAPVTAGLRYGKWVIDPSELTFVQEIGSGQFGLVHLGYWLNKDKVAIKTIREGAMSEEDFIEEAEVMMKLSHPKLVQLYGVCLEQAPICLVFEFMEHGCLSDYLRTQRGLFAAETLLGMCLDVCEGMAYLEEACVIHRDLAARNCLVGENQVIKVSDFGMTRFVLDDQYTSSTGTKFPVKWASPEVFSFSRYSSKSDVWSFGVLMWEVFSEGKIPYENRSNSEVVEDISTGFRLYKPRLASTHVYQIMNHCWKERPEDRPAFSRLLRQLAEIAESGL
# Outline: as §1
# [5] = target: T5, 380 human recombinant protein kinases (Homo sapiens, UniProt O94921); conditions: CDK14/cyclinY(h), read-out: Inhibition rate
# T5 construct: purchased Eurofins (Celle Lévescault)
# Outline: as §1
# [6] = target: T6, 380 human recombinant protein kinases (Homo sapiens, UniProt P16591); conditions: Fer(h), read-out: Inhibition rate
# T6 construct: purchased Eurofins (Celle Lévescault)
# Outline: as §1
# [7] = target: T7, 380 human recombinant protein kinases (Homo sapiens, UniProt P05129); conditions: PKCγ(h), read-out: Inhibition rate
# T7 construct: purchased Eurofins (Celle Lévescault)
# Outline: as §1
# [8] = target: T8, 380 human recombinant protein kinases (Homo sapiens, UniProt P24941); conditions: read-out: Inhibition rate; for inhibition at 0.01 µM: 10 nM; for inhibition at 0.1 µM: 100 nM; for inhibition at 1 µM: 1000 nM
# T8 construct: purchased Eurofins (Celle Lévescault)
# Outline: as §1
# [9] = target: T9, 380 human recombinant protein kinases (Homo sapiens, UniProt P05771); conditions: PKCβI(h), read-out: Inhibition rate
# T9 construct: purchased Eurofins (Celle Lévescault)
# Outline: as §1
# [10] = target: T10, 380 human recombinant protein kinases (Homo sapiens, UniProt P07949); conditions: Ret(h), read-out: Inhibition rate
# T10 construct: purchased Eurofins (Celle Lévescault)
# Outline: as §1
# [11] = target: T11, 380 human recombinant protein kinases (Homo sapiens, UniProt Q6P2M8); conditions: CaMKIß(h), read-out: Inhibition rate
# T11 construct: purchased Eurofins (Celle Lévescault)
# Outline: as §1
# [12] = target: T12, 380 human recombinant protein kinases (Homo sapiens, UniProt P31749); conditions: PKBα(h), read-out: Inhibition rate
# T12 construct: purchased Eurofins (Celle Lévescault)
# Outline: as §1
# [13] = target: T13, 380 human recombinant protein kinases (Homo sapiens, UniProt O00506); conditions: STK25(h), read-out: Inhibition rate (%)
# T13 construct: purchased Eurofins (Celle Lévescault)
# Outline: as §1
# [14] = target: T14, 380 human recombinant protein kinases (Homo sapiens, UniProt Q9NYY3); conditions: Snk(h), read-out: Inhibition rate (%)
# T14 construct: purchased Eurofins (Celle Lévescault)
# Outline: as §1
# T10 sequence (P07949 29-1114): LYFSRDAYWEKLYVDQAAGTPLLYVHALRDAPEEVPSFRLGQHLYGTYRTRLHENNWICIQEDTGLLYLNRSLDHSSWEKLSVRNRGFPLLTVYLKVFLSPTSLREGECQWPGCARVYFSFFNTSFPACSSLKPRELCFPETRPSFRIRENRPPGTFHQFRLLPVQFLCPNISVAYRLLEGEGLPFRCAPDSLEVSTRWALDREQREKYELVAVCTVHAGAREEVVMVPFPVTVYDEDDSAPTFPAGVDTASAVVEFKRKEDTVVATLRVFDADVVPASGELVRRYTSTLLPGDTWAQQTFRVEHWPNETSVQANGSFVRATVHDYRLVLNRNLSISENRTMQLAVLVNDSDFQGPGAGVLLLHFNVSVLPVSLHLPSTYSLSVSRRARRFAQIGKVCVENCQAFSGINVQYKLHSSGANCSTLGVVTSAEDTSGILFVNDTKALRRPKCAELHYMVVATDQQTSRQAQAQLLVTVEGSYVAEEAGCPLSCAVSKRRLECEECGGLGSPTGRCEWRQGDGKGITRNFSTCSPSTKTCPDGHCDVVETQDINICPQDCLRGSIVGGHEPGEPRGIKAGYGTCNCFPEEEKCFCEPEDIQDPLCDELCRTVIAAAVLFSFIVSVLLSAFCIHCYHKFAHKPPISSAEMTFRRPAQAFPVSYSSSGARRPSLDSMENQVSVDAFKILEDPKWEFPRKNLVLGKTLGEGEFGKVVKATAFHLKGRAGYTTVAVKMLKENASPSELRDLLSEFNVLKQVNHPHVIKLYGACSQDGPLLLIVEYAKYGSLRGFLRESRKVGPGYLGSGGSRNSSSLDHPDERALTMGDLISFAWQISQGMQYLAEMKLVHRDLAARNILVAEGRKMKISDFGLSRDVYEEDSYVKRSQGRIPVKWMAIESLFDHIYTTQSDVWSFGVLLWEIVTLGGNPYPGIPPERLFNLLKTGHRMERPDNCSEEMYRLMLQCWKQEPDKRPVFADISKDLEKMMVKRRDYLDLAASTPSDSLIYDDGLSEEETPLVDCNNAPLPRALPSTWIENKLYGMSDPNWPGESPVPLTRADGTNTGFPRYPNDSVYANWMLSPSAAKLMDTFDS
# T6 sequence (P16591 whole entry): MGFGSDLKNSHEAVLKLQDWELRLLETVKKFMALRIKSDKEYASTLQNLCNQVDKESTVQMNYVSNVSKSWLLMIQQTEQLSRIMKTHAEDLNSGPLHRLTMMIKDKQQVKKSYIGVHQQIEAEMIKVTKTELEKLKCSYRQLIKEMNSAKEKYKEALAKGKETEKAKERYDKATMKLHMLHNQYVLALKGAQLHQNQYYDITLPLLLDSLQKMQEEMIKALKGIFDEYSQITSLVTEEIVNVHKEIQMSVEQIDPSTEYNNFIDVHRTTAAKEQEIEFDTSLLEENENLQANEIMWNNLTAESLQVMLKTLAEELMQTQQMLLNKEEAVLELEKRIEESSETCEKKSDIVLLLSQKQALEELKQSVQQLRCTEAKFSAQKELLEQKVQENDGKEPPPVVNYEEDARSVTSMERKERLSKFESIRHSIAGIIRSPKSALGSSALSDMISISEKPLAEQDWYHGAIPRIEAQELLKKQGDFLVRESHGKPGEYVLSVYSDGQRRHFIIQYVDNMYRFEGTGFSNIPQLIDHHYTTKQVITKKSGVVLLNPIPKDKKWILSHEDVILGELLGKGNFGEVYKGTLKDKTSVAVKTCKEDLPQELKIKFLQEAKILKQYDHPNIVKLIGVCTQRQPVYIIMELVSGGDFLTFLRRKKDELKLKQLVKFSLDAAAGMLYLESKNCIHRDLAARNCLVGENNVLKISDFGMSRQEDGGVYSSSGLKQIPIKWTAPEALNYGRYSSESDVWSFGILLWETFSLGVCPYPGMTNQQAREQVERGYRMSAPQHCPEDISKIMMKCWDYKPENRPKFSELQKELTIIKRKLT
# T13 sequence (O00506 whole entry): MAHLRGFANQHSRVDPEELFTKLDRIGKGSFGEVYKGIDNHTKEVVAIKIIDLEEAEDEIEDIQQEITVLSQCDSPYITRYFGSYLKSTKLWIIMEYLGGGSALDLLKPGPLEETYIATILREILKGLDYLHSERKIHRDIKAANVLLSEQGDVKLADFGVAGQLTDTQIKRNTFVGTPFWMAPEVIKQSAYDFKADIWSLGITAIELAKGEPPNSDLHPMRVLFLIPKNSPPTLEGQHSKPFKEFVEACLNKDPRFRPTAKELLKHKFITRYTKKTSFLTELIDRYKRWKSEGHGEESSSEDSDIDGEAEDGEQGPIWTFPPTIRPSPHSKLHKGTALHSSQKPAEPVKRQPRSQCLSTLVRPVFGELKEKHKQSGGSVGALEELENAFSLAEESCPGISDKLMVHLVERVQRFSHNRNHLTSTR
# T1 sequence (Q02763 23-1124): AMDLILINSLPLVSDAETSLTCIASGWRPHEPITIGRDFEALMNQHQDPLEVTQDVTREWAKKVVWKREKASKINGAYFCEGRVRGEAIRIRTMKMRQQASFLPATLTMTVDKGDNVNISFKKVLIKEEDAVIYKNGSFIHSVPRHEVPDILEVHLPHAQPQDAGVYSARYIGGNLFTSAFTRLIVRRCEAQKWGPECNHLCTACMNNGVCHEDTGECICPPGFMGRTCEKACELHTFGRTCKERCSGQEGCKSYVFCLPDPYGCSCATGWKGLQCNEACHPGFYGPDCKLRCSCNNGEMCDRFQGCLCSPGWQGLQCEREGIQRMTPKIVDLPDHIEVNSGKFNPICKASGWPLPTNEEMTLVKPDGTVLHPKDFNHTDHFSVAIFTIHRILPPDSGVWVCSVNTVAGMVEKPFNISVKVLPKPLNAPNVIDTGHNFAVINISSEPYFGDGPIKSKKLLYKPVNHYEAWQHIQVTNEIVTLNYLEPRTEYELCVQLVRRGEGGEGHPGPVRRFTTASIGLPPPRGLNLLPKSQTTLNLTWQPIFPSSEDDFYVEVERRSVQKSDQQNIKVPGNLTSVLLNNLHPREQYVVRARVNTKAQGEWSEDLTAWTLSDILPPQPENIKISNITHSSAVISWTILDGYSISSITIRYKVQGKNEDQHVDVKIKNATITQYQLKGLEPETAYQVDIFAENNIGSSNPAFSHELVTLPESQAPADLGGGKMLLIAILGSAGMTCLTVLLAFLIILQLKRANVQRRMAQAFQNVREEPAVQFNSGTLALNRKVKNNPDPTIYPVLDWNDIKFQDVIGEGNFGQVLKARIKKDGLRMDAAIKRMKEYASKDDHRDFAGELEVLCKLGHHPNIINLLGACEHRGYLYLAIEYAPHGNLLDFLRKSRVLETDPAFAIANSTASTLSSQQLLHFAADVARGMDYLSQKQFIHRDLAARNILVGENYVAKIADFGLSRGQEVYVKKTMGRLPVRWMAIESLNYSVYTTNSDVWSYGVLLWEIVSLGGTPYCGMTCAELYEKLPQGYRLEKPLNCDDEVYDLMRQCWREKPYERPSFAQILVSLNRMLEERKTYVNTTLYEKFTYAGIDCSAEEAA
# T14 sequence (Q9NYY3 whole entry): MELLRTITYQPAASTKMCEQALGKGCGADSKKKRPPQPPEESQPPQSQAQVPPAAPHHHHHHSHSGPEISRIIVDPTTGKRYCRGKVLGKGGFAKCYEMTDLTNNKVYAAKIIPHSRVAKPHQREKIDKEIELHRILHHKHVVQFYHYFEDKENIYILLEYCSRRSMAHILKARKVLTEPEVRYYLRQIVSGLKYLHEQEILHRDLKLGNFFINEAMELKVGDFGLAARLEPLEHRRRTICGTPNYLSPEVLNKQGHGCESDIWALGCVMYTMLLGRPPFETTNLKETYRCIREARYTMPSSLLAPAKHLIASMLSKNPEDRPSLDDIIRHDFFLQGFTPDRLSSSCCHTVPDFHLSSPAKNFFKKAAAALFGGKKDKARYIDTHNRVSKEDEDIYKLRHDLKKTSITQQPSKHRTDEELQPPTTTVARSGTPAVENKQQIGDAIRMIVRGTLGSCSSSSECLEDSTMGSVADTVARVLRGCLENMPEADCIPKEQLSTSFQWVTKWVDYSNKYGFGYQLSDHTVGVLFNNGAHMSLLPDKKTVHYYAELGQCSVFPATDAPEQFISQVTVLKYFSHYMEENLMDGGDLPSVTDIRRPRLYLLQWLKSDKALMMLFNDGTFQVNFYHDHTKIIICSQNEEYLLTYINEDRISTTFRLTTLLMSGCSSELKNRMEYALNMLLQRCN
# T9 sequence (P05771 whole entry): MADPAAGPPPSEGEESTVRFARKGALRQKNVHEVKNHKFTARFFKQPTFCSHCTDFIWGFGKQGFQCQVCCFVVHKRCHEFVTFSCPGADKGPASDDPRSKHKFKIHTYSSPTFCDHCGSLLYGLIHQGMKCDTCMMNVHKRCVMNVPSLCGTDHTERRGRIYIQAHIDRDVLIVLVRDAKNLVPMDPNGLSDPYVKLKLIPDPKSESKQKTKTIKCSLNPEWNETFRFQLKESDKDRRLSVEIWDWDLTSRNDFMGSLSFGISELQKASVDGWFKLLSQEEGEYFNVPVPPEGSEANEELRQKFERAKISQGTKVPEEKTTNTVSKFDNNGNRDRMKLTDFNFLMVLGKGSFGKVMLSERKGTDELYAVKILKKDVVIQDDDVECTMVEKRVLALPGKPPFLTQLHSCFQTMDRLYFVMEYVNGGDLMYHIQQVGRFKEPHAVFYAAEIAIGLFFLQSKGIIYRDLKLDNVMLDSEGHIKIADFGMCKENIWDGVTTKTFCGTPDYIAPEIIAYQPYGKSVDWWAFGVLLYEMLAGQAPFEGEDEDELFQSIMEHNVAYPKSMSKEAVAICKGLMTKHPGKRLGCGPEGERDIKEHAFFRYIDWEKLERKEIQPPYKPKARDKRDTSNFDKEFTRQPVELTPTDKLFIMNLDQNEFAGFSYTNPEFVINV
smiles,measurement,setting,value
C=CC(=O)Nc1cc(-c2cc(-c3cc4c([nH]3)CCNC4=O)ccn2)ccc1OC(F)(F)F [compound 11],inhibition at 0.01 µM,[1]; 10 nM,0%
same,inhibition at 0.1 µM,[1]; 100 nM,10%
same,inhibition at 1 µM,[1]; 1000 nM,24%
same,inhibition at 0.01 µM,[2]; mTOR(h),-1%
same,inhibition at 0.1 µM,[2]; mTOR(h),2%
same,inhibition at 1 µM,[2]; mTOR(h),7%
same,inhibition at 0.01 µM,[2]; mTOR/FKBP12(h),8%
same,inhibition at 0.1 µM,[2]; mTOR/FKBP12(h),12%
same,inhibition at 1 µM,[2]; mTOR/FKBP12(h),6%
same,inhibition at 0.01 µM,[3]; 10 nM,5%
same,inhibition at 0.1 µM,[3]; 100 nM,-15%
same,inhibition at 1 µM,[3]; 1000 nM,-9%
same,inhibition at 0.01 µM,[4]; 10 nM,1%
same,inhibition at 0.1 µM,[4]; 100 nM,-2%
same,inhibition at 1 µM,[4]; 1000 nM,3%
same,inhibition at 0.01 µM,[5]; 10 nM,-2%
same,inhibition at 0.1 µM,[5]; 100 nM,7%
same,inhibition at 1 µM,[5]; 1000 nM,4%
same,inhibition at 0.01 µM,[6]; 10 nM,-11%
same,inhibition at 0.1 µM,[6]; 100 nM,-18%
same,inhibition at 1 µM,[6]; 1000 nM,-11%
same,inhibition at 0.01 µM,[7]; 10 nM,7%
same,inhibition at 0.1 µM,[7]; 100 nM,5%
same,inhibition at 1 µM,[7]; 1000 nM,14%
same,inhibition at 0.01 µM,[8]; CDK2/cyclinA(h),-5%
same,inhibition at 0.1 µM,[8]; CDK2/cyclinA(h),0%
same,inhibition at 1 µM,[8]; CDK2/cyclinA(h),7%
same,inhibition at 0.01 µM,[8]; CDK2/cyclinE(h),-3%
same,inhibition at 0.1 µM,[8]; CDK2/cyclinE(h),1%
same,inhibition at 1 µM,[8]; CDK2/cyclinE(h),-1%
same,inhibition at 0.01 µM,[9]; 10 nM,3%
same,inhibition at 0.1 µM,[9]; 100 nM,1%
same,inhibition at 1 µM,[9]; 1000 nM,-13%
same,inhibition at 0.01 µM,[10]; 10 nM,12%
same,inhibition at 0.1 µM,[10]; 100 nM,2%
same,inhibition at 1 µM,[10]; 1000 nM,1%
same,inhibition at 0.01 µM,[11]; 10 nM,-6%
same,inhibition at 0.1 µM,[11]; 100 nM,-2%
same,inhibition at 1 µM,[11]; 1000 nM,-2%
same,inhibition at 0.01 µM,[12]; 10 nM,2%
same,inhibition at 0.1 µM,[12]; 100 nM,4%
same,inhibition at 1 µM,[12]; 1000 nM,14%
same,inhibition at 0.01 µM,[13]; 10 nM,-4%
same,inhibition at 0.1 µM,[13]; 100 nM,1%
same,inhibition at 1 µM,[13]; 1000 nM,0%
same,inhibition at 0.01 µM,[14]; 10 nM,0%
same,inhibition at 0.1 µM,[14]; 100 nM,10%
same,inhibition at 1 µM,[14]; 1000 nM,15%
